Assay [1] relates to Corn Earworm (CEW) (Helicoverpa zea). The assay is described as follows: Bioassays on Corn Earworm (CEW), 128-well diet tray assay. Format: in vivo. The settings on record: 168 h, 50 μg/cm^2 test compound on artificial diet, second instar larvae, 25° C., five to seven days, average of eight wells, read-out: CEW Rating (% mortality). The protocol: (§1) Certain molecules disclosed in this document were tested against BAW and CEW using procedures described in the following examples. In the reporting of the results, the “BAW & CEW Rating Table” was used (See Table Section).
Bioassays on CEW (Helicoverpa zea)
Bioassays on CEW were conducted using a 128-well diet tray assay. one to five second instar CEW larvae were placed in each well (3 mL) of the diet tray that had been previously filled with 1 mL of artificial diet to which 50 μg/cm^2 of the test compound (dissolved in 50 μL of 90:10 acetone-water mixture) had been applied (to each of eight wells) and then allowed to dry. Trays were covered with a clear self-adhesive cover, and held at 25° C., 14:10 light-dark for five to seven days. Percent mortality was recorded for the larvae in each well; activity in the eight wells was then averaged. The results are indicated in the table entitled “Table 3: Assay Results” (See Table Section).

Assay [2] concerns Beet Armyworm (BAW) (Spodoptera exigua). The assay is described as follows: Bioassays on Beet Armyworm (BAW), 128-well diet tray assay. Format: in vivo. The settings on record: 168 h, 50 μg/cm^2 test compound on artificial diet, second instar larvae, 25° C., five to seven days, average of eight wells, read-out: BAW Rating (% mortality). The procedure: as §1
Bioassays on BAW (Spodoptera exigua)
Bioassays on BAW were conducted using a 128-well diet tray assay. one to five second instar BAW larvae were placed in each well (3 mL) of the diet tray that had been previously filled with 1 mL of artificial diet to which 50 μg/cm^2 of the test compound (dissolved in 50 μL of 90:10 acetone-water mixture) had been applied (to each of eight wells) and then allowed to dry. Trays were covered with a clear self-adhesive cover, and held at 25° C., 14:10 light-dark for five to seven days. Percent mortality was recorded for the larvae in each well; activity in the eight wells was then averaged. The results are indicated in the table entitled “Table 3: Assay Results” (See Table Section).

Broadly, the mortality is the share of the test organisms that died. For the compound `O=C(NCc1ccc(Cl)nc1)c1ccc(/C=C/C(c2cc(Cl)cc(Cl)c2)C(F)(F)F)cc1Br` (centres unmarked) [AC46], the mortality at 50 µg/cm2 in assay [1] and in assay [2] was 50 to 100% throughout.

In the case of `Cc1cc(/C=C/C(c2cc(Cl)cc(Cl)c2)C(F)(F)F)ccc1C(=O)NCC(=O)NNC(=O)C1CC1` (centres unmarked) [AC47], the mortality at 50 µg/cm2 in assay [1] and in assay [2] was 0% in each case.

For the compound `Cc1cc(/C=C/C(c2cc(Cl)cc(Cl)c2)C(F)(F)F)ccc1C(=O)NCc1ccc(Cl)cc1` (centres unmarked) [AC48], the mortality at 50 µg/cm2 in assay [1] and in assay [2] was 50 to 100% throughout.

On to `O=C(NCc1ccc(Cl)nc1)c1ccc(/C=C/C(c2cc(Cl)cc(Cl)c2)C(F)(F)F)cc1F` (centres unmarked) [AC49], for which the mortality at 50 µg/cm2 in assay [1] and in assay [2] was 50 to 100% in each case.

For `Cc1cc(/C=C/C(c2cc(Cl)cc(Cl)c2)C(F)(F)F)ccc1C(=O)NCc1nccn1C` (centres unmarked) [AC50], the figures for the mortality at 50 µg/cm2 in assay [1] and in assay [2] were 0% and 50 to 100%, respectively.

Turning to `Cc1cc(/C=C/C(c2cc(Cl)cc(Cl)c2)C(F)(F)F)ccc1C(=O)NCC(=O)N(C)CC(F)(F)F` (centres unmarked) [AC51], the mortality at 50 µg/cm2 in assay [1] and in assay [2] was 50 to 100% in each case.

On to `Cc1cc(/C=C/C(c2cc(Cl)c(F)c(Cl)c2)C(F)(F)F)ccc1C(=O)NC1CCOCC1` (centres unmarked) [AC52], for which the mortality at 50 µg/cm2 in assay [1] and in assay [2] was 50 to 100% each time.

`Cc1cc(/C=C/C(c2cc(Cl)c(F)c(Cl)c2)C(F)(F)F)ccc1C(=O)NCc1ccc(Cl)cn1` (centres unmarked) [AC53]: the mortality at 50 µg/cm2 in assay [1] and in assay [2] was 50 to 100% throughout.

In the case of `Cc1cc(/C=C/C(c2cc(Cl)c(F)c(Cl)c2)C(F)(F)F)ccc1C(=O)NCc1ccnc(Cl)c1` (centres unmarked) [AC54], the mortality at 50 µg/cm2 in assay [1] and in assay [2] was 50 to 100% throughout.

Regarding `O=C(CNC(=O)c1ccc(/C=C/C(c2cc(Cl)cc(Cl)c2)C(F)(F)F)cc1Cl)NCC(F)(F)F` (centres unmarked) [AC57], the mortality at 50 µg/cm2 in assay [1] and in assay [2] was 50 to 100% each time.

For the compound `CC(C)(C)OC(=O)CNC(=O)c1ccc(/C=C/C(c2cc(Cl)c(Cl)c(Cl)c2)C(F)(F)F)cc1Br` (centres unmarked) [AC58], the mortality at 50 µg/cm2 in assay [1] and in assay [2] was 50 to 100% in each case.

Turning to `Cc1cc(/C=C/C(c2cc(Cl)cc(Cl)c2)C(F)(F)F)ccc1C(=O)Nc1ccc(Cl)nc1` (centres unmarked) [AC59], the mortality at 50 µg/cm2 in assay [1] and in assay [2] was 50 to 100% each time.

As to `Cc1cc(/C=C/C(c2cc(Cl)cc(Cl)c2)C(F)(F)F)cnc1C(=O)NCc1ccc(Cl)nc1` (centres unmarked) [AC60], the mortality at 50 µg/cm2 in assay [1] and in assay [2] was 50 to 100% each time.

Regarding `O=C(NC1CSC1)c1ccc(/C=C/C(c2cc(Cl)cc(Cl)c2)C(F)(F)F)cc1F` (centres unmarked) [AC61], the mortality at 50 µg/cm2 in assay [1] and in assay [2] was 50 to 100% in each case.

In the case of `O=C(CNC(=O)c1ccc(/C=C/C(c2cc(Cl)cc(Cl)c2)C(F)(F)F)cc1F)NCC(F)(F)F` (centres unmarked) [AC62], the mortality at 50 µg/cm2 in assay [1] and in assay [2] was 50 to 100% in each case.

As to `O=C(NCc1ccc(Cl)nc1)c1ccc(/C=C/C(c2cc(Cl)c(F)c(Cl)c2)C(F)(F)F)cc1Br` (centres unmarked) [AC63], the mortality at 50 µg/cm2 in assay [1] and in assay [2] was 50 to 100% throughout.

Regarding `O=C(CNC(=O)c1ccc(/C=C/C(c2cc(Cl)c(Cl)c(Cl)c2)C(F)(F)F)cc1Cl)NCC(F)(F)F` (centres unmarked) [AC64, (E)-2-chloro-N-(2-oxo-2-((2,2,2-trifluoroethyl)amino)ethyl)-4-(4,4,4-trifluoro-3-(3,4,5-trichlorophenyl)but-1-en-1-yl)benzamide], the mortality at 50 µg/cm2 in assay [1] and in assay [2] was 50 to 100% each time.

Turning to `O=C(NCc1ccc(Cl)nc1)c1ccc(/C=C/C(c2cc(Cl)c(F)c(Cl)c2)C(F)(F)F)cc1F` (centres unmarked) [AC65], the mortality at 50 µg/cm2 in assay [1] and in assay [2] was 50 to 100% each time.

For the compound `O=C(CNC(=O)c1ccc(/C=C/C(c2cc(Cl)c(Cl)c(Cl)c2)C(F)(F)F)cc1Br)NCC(F)(F)F` (centres unmarked) [AC66], the mortality at 50 µg/cm2 in assay [1] and in assay [2] was 50 to 100% in each case.

In the case of `O=C(NC1CSC1)c1ccc(/C=C/C(c2cc(Cl)c(F)c(Cl)c2)C(F)(F)F)cc1F` (centres unmarked) [AC67], the mortality at 50 µg/cm2 in assay [1] and in assay [2] was 50 to 100% throughout.

Turning to `O=C(CNC(=O)c1ccc(/C=C/C(c2cc(Cl)c(F)c(Cl)c2)C(F)(F)F)cc1F)NCC(F)(F)F` (centres unmarked) [AC68], the mortality at 50 µg/cm2 in assay [1] and in assay [2] was 50 to 100% each time.

In the case of `Cc1cc(/C=C/C(c2cc(Cl)c(F)c(Cl)c2)C(F)(F)F)ccc1C(=O)NCC(=O)NCC(F)(F)F` (centres unmarked) [AC69], the mortality at 50 µg/cm2 in assay [1] and in assay [2] was 50 to 100% in each case.

As to `COc1cc(/C=C/C(c2cc(Cl)c(F)c(Cl)c2)C(F)(F)F)ccc1C(=O)NCc1ccc(Cl)nc1` (centres unmarked) [AC70], the mortality at 50 µg/cm2 in assay [1] and in assay [2] was 0% in each case.

Take `COc1cc(/C=C/C(c2cc(Cl)c(F)c(Cl)c2)C(F)(F)F)ccc1C(=O)NC1CSC1` (centres unmarked) [AC71]: the mortality at 50 µg/cm2 in assay [1] and in assay [2] was 50 to 100% throughout.

As for `CCc1cc(/C=C/C(c2cc(Cl)c(F)c(Cl)c2)C(F)(F)F)ccc1C(=O)NCc1ccc(Cl)nc1` (centres unmarked) [AC72], the mortality at 50 µg/cm2 in assay [1] and in assay [2] was 50 to 100% each time.

`O=C(NCc1ccc(C(F)(F)F)nc1)c1ccc(/C=C/C(c2cc(Cl)c(Cl)c(Cl)c2)C(F)(F)F)cc1Br` (centres unmarked) [AC75]: the mortality at 50 µg/cm2 in assay [1] and in assay [2] was 50 to 100% each time.

Turning to `CCc1cc(/C=C/C(c2cc(Cl)c(F)c(Cl)c2)C(F)(F)F)ccc1C(=O)NCc1cccnc1Cl` (centres unmarked) [AC76], the mortality at 50 µg/cm2 in assay [1] and in assay [2] was 50 to 100% throughout.

Turning to `Cc1cc(/C=C/C(c2cc(Cl)c(F)c(Cl)c2)C(F)(F)F)ccc1C(=O)NCc1cc(Cl)ccn1` (centres unmarked) [AC77], the mortality at 50 µg/cm2 in assay [1] and in assay [2] was 50 to 100% throughout.

In the case of `Cc1cc(/C=C/C(c2cc(Cl)c(Cl)c(Cl)c2)C(F)(F)F)ccc1C(=O)NCC(=O)NCC(F)(F)F` (centres unmarked) [AC78], the mortality at 50 µg/cm2 in assay [1] and in assay [2] was 50 to 100% in each case.

As for `O=C(CNC(=O)c1ccc(/C=C/C(c2cc(Cl)c(F)c(Cl)c2)C(F)(F)F)cc1Br)NCC(F)(F)F` (centres unmarked) [AC79, (E)-2-bromo-4-(3-(3,5-dichloro-4-fluorophenyl)-4,4,4-trifluorobut-1-en-1-yl)-N-(2-oxo-2-((2,2,2-trifluoroethyl)amino)ethyl)benzamide], the mortality at 50 µg/cm2 in assay [1] and in assay [2] was 50 to 100% throughout.

For `CCc1cc(/C=C/C(c2cc(Cl)c(F)c(Cl)c2)C(F)(F)F)ccc1C(=O)NCC(=O)NCC(F)(F)F` (centres unmarked) [AC80], the mortality at 50 µg/cm2 in assay [1] and in assay [2] was 50 to 100% in each case.

Consider `Cc1cc(/C=C/C(c2cc(Cl)cc(Cl)c2)C(F)(F)F)ccc1C(=O)NCC(=O)NC1CS(=O)(=O)C1` (centres unmarked) [AC81], for which the mortality at 50 µg/cm2 in assay [1] is 0%; in assay [2], 50 to 100%.

For the compound `Cc1cc(/C=C/C(c2cc(Cl)cc(Cl)c2)C(F)(F)F)ccc1C(=O)N[C@H]1C[S@@+]([O-])C1` (some centres unmarked) [AC82], the mortality at 50 µg/cm2 in assay [1] and in assay [2] was 50 to 100% each time.

For the compound `O=C(NC1CS(=O)(=O)C1)c1ccc(/C=C/C(c2cc(Cl)cc(Cl)c2)C(F)(F)F)cc1F` (centres unmarked) [AC83, (E)-4-(3-(3,5-dichlorophenyl)-4,4,4-trifluorobut-1-en-1-yl)-N-(1,1-dioxidothietan-3-yl)-2-fluorobenzamide], the mortality at 50 µg/cm2 in assay [1] and in assay [2] was 50 to 100% throughout.

As to `O=C(NC1CS(=O)(=O)C1)c1ccc(/C=C/C(c2cc(Cl)c(F)c(Cl)c2)C(F)(F)F)cc1F` (centres unmarked) [AC84], the mortality at 50 µg/cm2 in assay [1] and in assay [2] was 50 to 100% each time.

Regarding `COc1cc(/C=C/C(c2cc(Cl)c(F)c(Cl)c2)C(F)(F)F)ccc1C(=O)NC1CS(=O)(=O)C1` (centres unmarked) [AC85], the mortality at 50 µg/cm2 in assay [1] and in assay [2] was 50 to 100% throughout.

In the case of `CCc1cc(/C=C/C(c2cc(Cl)c(F)c(Cl)c2)C(F)(F)F)ccc1C(=O)NC1CS(=O)(=O)C1` (centres unmarked) [AC86], the mortality at 50 µg/cm2 in assay [1] and in assay [2] was 50 to 100% each time.

With `O=C(NC1C[S+]([O-])C1)c1ccc(/C=C/C(c2cc(Cl)c(F)c(Cl)c2)C(F)(F)F)cc1F` (centres unmarked) [AC87], the mortality at 50 µg/cm2 in assay [1] and in assay [2] was 50 to 100% in each case.

Turning to `Cc1cc(/C=C/C(c2cc(Cl)cc(Cl)c2)C(F)(F)F)ccc1C(=O)NCc1nnc(C2CC2)o1` (centres unmarked) [AC89, (E)-N-((5-cyclopropyl-1,3,4-oxadiazol-2-yl)methyl)-4-(3-(3,5-dichlorophenyl)-4,4,4-trifluorobut-1-en-1-yl)-2-methylbenzamide], the mortality at 50 µg/cm2 in assay [1] and in assay [2] was 50 to 100% each time.

Consider `FC(F)(F)CNC(=S)CNC(=S)c1ccc(/C=C/C(c2cc(Cl)c(Cl)c(Cl)c2)C(F)(F)F)cc1Br` (centres unmarked) [AC90, (E)-2-bromo-N-(2-thioxo-2-((2,2,2-trifluoroethyl)amino)ethyl)-4-(4,4,4-trifluoro-3-(3,4,5-trichlorophenyl)but-1-en-1-yl)benzothioamide], for which the mortality at 50 µg/cm2 in assay [1] and in assay [2] was 50 to 100% throughout.

The values above are taken from patent US9615576B2, “Pesticidal compositions and processes related thereto” (Dow AgroSciences LLC, priority 2011, dated 2017).
